The supplement of paper PMC13380429

Assays:
Conditions in all cases: 72 h
Caco-2 [1] = test: cell viability relative to DMSO; higher = less toxic
HepG2 [2] = test: as above
Vero E6 [3] = test: as above
Caco-2 [4] = test: relative viability EC50 (midpoint between 100% and the lowest measured viability); higher = less toxic
HepG2 [5] = test: as above
Vero E6 [6] = test: as above
Caco-2 [7] = test: drug sensitivity score (DSS) for viability; higher = more toxic; extreme values may be limits of the assay
HepG2 [8] = test: as above
Vero E6 [9] = test: as above
Calu-3 [10] = test: cell viability relative to DMSO; higher = less toxic
U2OS [11] = test: as above
Calu-3 [12] = test: relative viability EC50 (midpoint between 100% and the lowest measured viability); higher = less toxic
U2OS [13] = test: as above
Calu-3 [14] = test: drug sensitivity score (DSS) for viability; higher = more toxic; extreme values may be limits of the assay
U2OS [15] = test: as above

| Compound | cell viability (Caco-2 [1]; 1 nM) [%] | cell viability (Caco-2 [1]; 10 nM) [%] | cell viability (Caco-2 [1]; 100 nM) [%] | cell viability (Caco-2 [1]; 1000 nM) [%] | cell viability (Caco-2 [1]; 10000 nM) [%] | cell viability (HepG2 [2]; 1 nM) [%] | cell viability (HepG2 [2]; 10 nM) [%] | cell viability (HepG2 [2]; 100 nM) [%] | cell viability (HepG2 [2]; 1000 nM) [%] | cell viability (HepG2 [2]; 10000 nM) [%] | cell viability (Vero E6 [3]; 1 nM) [%] | cell viability (Vero E6 [3]; 10 nM) [%] | cell viability (Vero E6 [3]; 100 nM) [%] | cell viability (Vero E6 [3]; 1000 nM) [%] | cell viability (Vero E6 [3]; 10000 nM) [%] | relative viability EC50 (Caco-2 [4]) [µM] | relative viability EC50 (HepG2 [5]) [µM] | relative viability EC50 (Vero E6 [6]) [µM] | drug sensitivity score (Caco-2 [7]) | drug sensitivity score (HepG2 [8]) | drug sensitivity score (Vero E6 [9]) | cell viability (Calu-3 [10]; 1 nM) [%] | cell viability (Calu-3 [10]; 10 nM) [%] | cell viability (Calu-3 [10]; 100 nM) [%] | cell viability (Calu-3 [10]; 1000 nM) [%] | cell viability (Calu-3 [10]; 10000 nM) [%] | cell viability (U2OS [11]; 1 nM) [%] | cell viability (U2OS [11]; 10 nM) [%] | cell viability (U2OS [11]; 100 nM) [%] | cell viability (U2OS [11]; 1000 nM) [%] | cell viability (U2OS [11]; 10000 nM) [%] | relative viability EC50 (Calu-3 [12]) [µM] | relative viability EC50 (U2OS [13]) [nM] | drug sensitivity score (Calu-3 [14]) | drug sensitivity score (U2OS [15]) |
| --- | --- | --- | --- | --- | --- | --- | --- | --- | --- | --- | --- | --- | --- | --- | --- | --- | --- | --- | --- | --- | --- | --- | --- | --- | --- | --- | --- | --- | --- | --- | --- | --- | --- | --- | --- |
| O=C(O)CCN(O)C(=O)CCCCCCCCC1CC1 [TC-E-5002] | 89 | 97.7 | 91.3 | 92.1 | 91.9 | 96.1 | 103 | 101 | 99.3 | 104 | 97.2 | 99.2 | 97.7 | 93.2 | 94.9 | > 10 | > 10 | > 10 | 0 | 0 | 0 | – | – | – | – | – | – | – | – | – | – | – | – | – | – |
| O=C(C1CCCCC1)N1CC(=O)N2CCc3ccccc3C2C1 (centres undefined) [praziquantel] | 109 | 112 | 100 | 109 | 70.7 | 107 | 90.7 | 107 | 94.3 | 82.3 | 103 | 102 | 106 | 99.1 | 106 | – | > 10 | > 10 | 0.9 | 1 | 0 | 102 | 96.9 | 104 | 98.9 | 91.7 | 99 | 104 | 100 | 101 | 97.5 | > 10 | > 10000 | 0 | 0 |
| CC(C)(C#N)c1ccc(N2C(=O)OCc3cnc4ccc(-c5cnc6ccccc6c5)cc4c32)cc1 | 107 | 108 | 102 | 75 | 77.4 | 116 | 113 | 96.4 | 100 | 89.6 | 109 | 104 | 103 | 97.4 | 84.6 | > 10 | > 10 | > 10 | 3.7 | 0 | 0.5 | 110 | 97.3 | 110 | 68.3 | 41.5 | – | – | – | – | – | 0.939 | – | 7.1 | – |
| Cc1cc(Nc2ncnc3ccc(-c4ccc(CNCCS(C)(=O)=O)o4)cc23)ccc1Oc1ccn2ncnc2c1 [HER2-Inhibitor-1] | 102 | 88.5 | 94.8 | 88.4 | 52.7 | 98.4 | 102 | 95.8 | 89.1 | 88.8 | 105 | 106 | 105 | 93.7 | 94.2 | – | > 10 | > 10 | 4.2 | 0.4 | 0 | 122 | 88.4 | 66.1 | 45.5 | 30.5 | 98.2 | 95.2 | 100 | 91.9 | 87.9 | 0.124 | > 10000 | 15 | 0.4 |
| CCNC(=O)[C@H]1O[C@@H](n2cnc3c(N)ncnc32)[C@H](O)[C@@H]1O [NECA] | 102 | 97.6 | 110 | 111 | 110 | 94.8 | 102 | 107 | 105 | 105 | 100 | 105 | 96.1 | 101 | 94.4 | > 10 | > 10 | > 10 | 0 | 0 | 0 | 106 | 102 | 94.9 | 88.5 | 92.8 | – | – | – | – | – | > 10 | – | 0.6 | – |
| NCCCC[C@H](NC(=O)[C@@H]1CCCN1C(=O)[C@@H]1CSSC[C@H](NC(=O)CNC(=O)CNC(=O)CN)C(=O)N[C@@H](Cc2ccc(O)cc2)C(=O)N[C@@H](Cc2ccccc2)C(=O)N[C@@H](CCC(N)=O)C(=O)N[C@@H](CC(N)=O)C(=O)N1)C(=O)NCC(N)=O [terlipressin] | 100 | 96.5 | 98 | 100 | 103 | 94.4 | 105 | 94.3 | 97.4 | 110 | 93.7 | 100 | 86.1 | 91.2 | 110 | > 10 | > 10 | > 10 | 0 | 0 | 0 | 93.9 | 92 | 102 | 95.8 | 96.4 | – | – | – | – | – | > 10 | – | 0 | – |
| Cn1cc(-c2[nH]c3cc(NC(=O)[C@H](N)C4CCCCC4)cc4c3c2C=NNC4=O)cn1 | 106 | 98.2 | 97.8 | 104 | 25.9 | 97.3 | 103 | 91.5 | 50.9 | 30.7 | 95.4 | 99.4 | 98.3 | 95.3 | 84.5 | 3.48 | 0.493 | > 10 | 3.7 | 10.3 | 0.6 | 109 | 98.7 | 114 | 66.7 | 51.2 | 99.9 | 98.4 | 96.3 | 8.5 | 4.2 | – | 324 | 6.5 | 17.1 |
| Clc1cccc(/C=N/N=C/c2cccc(Cl)c2)c1 [3,3'-dichlorobenzaldazine] | 103 | 99.1 | 105 | 94.7 | 103 | 94.8 | 95.6 | 101 | 100 | 84.5 | 99.6 | 103 | 99.5 | 98.9 | 99.5 | > 10 | > 10 | > 10 | 0 | 0.3 | 0 | 107 | 93.9 | 96.7 | 97.5 | 96.1 | – | – | – | – | – | > 10 | – | 0 | – |
| CCCCCCCCOc1ccccc1C(=O)Nc1ccc(C(=O)OCC[N+](C)(CC)CC)cc1 [otilonium] | 89.1 | 99.4 | 97 | 97.5 | 74.7 | 109 | 96.2 | 108 | 96 | 83.8 | 103 | 97.2 | 106 | 97.8 | 94.1 | – | > 10 | > 10 | 1.4 | 0.7 | 0 | 97 | 104 | 91.1 | 96.7 | 89.3 | 101 | 106 | 98 | 101 | 90.7 | > 10 | > 10000 | 0 | 0 |
| O=c1onc2cnc3ccccc3n12 [ODQ] | 91.3 | 96 | 95.2 | 89.9 | 112 | 105 | 110 | 100 | 110 | 94.3 | 97.9 | 96.4 | 97.6 | 108 | 105 | > 10 | > 10 | > 10 | 0 | 0 | 0 | – | – | – | – | – | – | – | – | – | – | – | – | – | – |
| O=c1[nH]c2ccc(Cl)cc2c(N[C@@H]2CN3CCC2CC3)c1-c1nc2ccccc2[nH]1 [CHIR-124] | 103 | 96.9 | 111 | 66.9 | 44 | 103 | 99.3 | 101 | 36.7 | 3.1 | 105 | 103 | 105 | 77.6 | 6.6 | 0.869 | 0.777 | 1.59 | 7 | 12.7 | 8.6 | 92.3 | 91.8 | 105 | 97.3 | 59.9 | 94.1 | 96.9 | 95.3 | 4.5 | 0.8 | – | 307 | 2.4 | 18 |
| Cc1ccnc(NS(=O)(=O)c2ccc(N)cc2)n1 [sulfamerazine] | 97 | 89.8 | 92 | 98.7 | 98.2 | 104 | 94.1 | 95.5 | 109 | 89.3 | 104 | 98.5 | 97.8 | 97.8 | 97.8 | > 10 | > 10 | > 10 | 0 | 0 | 0 | – | – | – | – | – | 102 | 102 | 94.3 | 97.6 | 100 | – | > 10000 | – | 0 |
| C=CC(=O)Nc1cccc(Nc2nc(Nc3ccc(N4CCN(C(C)=O)CC4)cc3OC)ncc2C(F)(F)F)c1 [rociletinib] | 97.4 | 95.9 | 98.3 | 92.3 | 62.6 | 106 | 96.1 | 90.2 | 79.2 | 42.3 | 105 | 99.7 | 99.4 | 101 | 83 | – | 1.38 | > 10 | 3.1 | 5.3 | 0.3 | 95.6 | 88.6 | 88.3 | 57.8 | 16.6 | 100 | 93.9 | 101 | 88 | 16.7 | 0.822 | 2030 | 10 | 6.6 |
| COc1ccc(C(=O)c2c(C)n(CCN3CCOCC3)c3cc(I)ccc23)cc1 [AM-630] | 97.3 | 113 | 81.1 | 94.2 | 69.7 | 93.3 | 82.5 | 104 | 94.3 | 91.6 | 97.8 | 96.5 | 102 | 100 | 97 | – | > 10 | > 10 | 2.1 | 0 | 0 | 92.9 | 102 | 104 | 102 | 92.9 | 96.2 | 101 | 97.2 | 98.5 | 94.1 | > 10 | > 10000 | 0 | 0 |
| O=C(/C=C\n1cnc(-c2cc(C(F)(F)F)cc(C(F)(F)F)c2)n1)NNc1cnccn1 [selinexor] | 97 | 87.9 | 89 | 50.4 | 44.2 | 108 | 99.2 | 49.6 | 31.9 | 24.5 | 98.9 | 102 | 81.9 | 42.4 | 24.3 | 0.248 | 0.0686 | 0.319 | 10.4 | 19.9 | 12.9 | 104 | 93.4 | 66 | 57 | 56.4 | 97.1 | 89.9 | 75.8 | 12.7 | 7.6 | – | 189 | 12.5 | 18.8 |
